Assay results from patent US10894036B2, “Use of marizomib for the treatment of central nervous system (CNS) cancers” (Celgene International II Sàrl, priority 2016, dated 2021).
Entries after “also recorded” stand apart in the source; their conditions may differ.

How the values were obtained:
[1] = molecular target: T1, caspase-like (C-L) proteasome activity (Homo sapiens, UniProt P28072); test: Proteasome inhibition in packed whole blood: C-L; type: in vivo; conditions: PWB post-Marizomib infusion (peak effect)
T1 construct: Change in proteasome activities in packed whole blood (PWB) lysates and peripheral blood mononuclear cell (PBMC) lysates; from tissue; host or cells: packed whole blood lysates of dosed glioma patients
Source text: (§1) The drugs were infused on 28-Day Cycles.
(§2) Change in proteasome activities in packed whole blood (PWB) lysates and peripheral blood mononuclear cell (PBMC) lysates, comparing pre-drug and post drug levels on Days 1, 8, and 15 of Cycle 1; Days 1 and 15 of each Cycle thereafter; and at the End-of Treatment Visit.
(§3) The laboratory correlates include assessment of the percentage inhibition of proteasome function (evaluated by measurement of CT-L, T-L and C-L activity in blood isolates such as whole blood and PBMC lysates.
(§4) PD analysis will include change in proteasome activities (whole blood lysates and PBMC lysates) by comparing pre-drug and post drug levels on Days 1, 8, and 15 (i.e., for each dose) of Cycle 1 and Days 1 and 15 (i.e., for the first and last doses) of each cycle thereafter.

[2] = test system: trypsin-like (T-L) proteasome activity; test: Proteasome inhibition in packed whole blood: T-L; type: in vivo, human; conditions: for compensatory hyperactivation of T-L and C-L proteasome subunits: repeated dosing
Source text: as §1, §2, §3, §4

[3] = Phase 1b MRZ + TMZ (+RT) in newly diagnosed G4 MG: adverse events, DLT; type: in vivo, human
Experimental: This is a Phase 1b, open-label, 3+3, dose-escalation followed by dose-expansion study in patients with newly diagnosed G4 MG who have not previously received any local or systemic therapy for their G4 MG. The study will examine the effect of the addition of MRZ to standard of care treatment utilizing two study arms: Concomitant Treatment in which MRZ will be combined with TMZ+RT and Adjuvant Treatment in which MRZ will be combined with TMZ. The study will be conducted in two Stages. In Stage 1 (Dose-Escalation): 3 to 6 evaluable patients per MRZ dose cohort will be enrolled in each study arm. […] A total of approximately 48 patients will be enrolled in Stages 1 and 2 combined. Patients may not be enrolled in more than 1 MRZ dose cohort per arm.
Concomitant Treatment consists of a 6 week (42 day) treatment period, followed by a 4 (−1) week break from treatments. All patients will receive intravenous (IV) MRZ infusion on Days 1, 8, 15, 29, and 36 as a 10 minute infusion. IV hydration will be given prior to the infusion. Focal RT will be administered once daily, 5 days/week, for 30 doses over 6 weeks to a total dose of 60 Gy, starting on Day 1. TMZ will be administered once daily, 7 days/week, for 6 weeks, starting on Day 1, at a dose of 75 mg/m^2. Patients who complete Concomitant Treatment may continue on to Adjuvant Treatment.
All patients will receive IV MRZ infusion on Days 1, 8, and 15 as a 10 minute infusion, in 28-day cycles. IV hydration will be given prior to the infusion. TMZ will be administered daily for 5 consecutive days, starting on Day 1 of Cycle 1 (C1D1), at a dose of 150 mg/m^2. If tolerated in Cycle 1, the TMZ dose will be increased on Day 1 of Cycle 2 (C2D1) to a dose of 200 mg/m^2.

[4] = N = 20, related to the labelled drug
[5] = N = 20, related to the labelled drug (MRZ+TMZ = related to both)
[6] = patient 301-A202, action taken None
[7] = patient 301-C202, action taken None

In the case of `C[C@@]12OC(=O)[C@]1([C@@H](O)[C@@H]1C=CCCC1)NC(=O)[C@@H]2CCCl` [marizomib], the inhibition at […]2 ([1]; 0.55 mg/m^2) is reported as 21 ± 7.8%, the inhibition at 0.7 mg/m2 ([1]; 0.7 mg/m^2) is reported as 50.4 ± 9.1% and the inhibition at 0.8 mg/m2 ([1]; 0.8 mg/m^2) is reported as 51.9 ± 8.3%. For the same compound, the “% T-L inhibition” value ([2]; PWB post-MRZ infusion (peak effect), 0.7 mg/m^2 (17 May 2016)) was 77.3 ± 10.5 (3) %, the “compensatory hyperactivation of T-L and C-L proteasome subunits” value [2] was “overcome compensatory hyperactivation of proteasome subunits; also recorded: overcomes compensatory hyperactivation” and the “compensatory hyperactivation of T-L and C-L proteasome subunits” value ([2]; listed as MRZ) was “overcomes compensatory hyperactivation of proteasome subunits”. For the same compound, the “Discontinued, reason Adverse Event” value ([3]; N = 20) was 1 (5.0%), the “Dose reduction, reason Adverse Event” value ([3]; N = 20) was 1 (5.0%) and the “Number of Patients with drug Discontinued” value ([3]; N = 20) was 1 (5.0%). For the same compound, the “Number of Patients with ≥1 Dose Reduction” value ([3]; N = 20) was 1 (5.0%), the “patients with MRZ-related serious adverse events” value ([3]; N = 20) was “One” and the “patients with fatigue Grade ≥3” value ([3]; N = 20) was “Three”. For the same compound, the “Abdominal pain, Grade ≥3 TEAE, drug related” value [3, 4] was 0 (0.0%), the “Confusional state, treatment-related TEAE, number of patients” value [3, 4] was 3 and the “Confusional state, treatment-related TEAE, percent of patients” value [3, 4] was “(15.0%)”. The “Constipation, treatment-related TEAE, number of patients” value [3, 4] was 1, the “Constipation, treatment-related TEAE, percent of patients” value [3, 4] was “(5.0%)” and the “Decreased appetite, treatment-related TEAE, number of patients” value [3, 4] was 4. The “Decreased appetite, treatment-related TEAE, percent of patients” value [3, 4] was “(20.0%)”, the “Dehydration, Grade ≥3 TEAE, drug related” value [3, 4] was 1 (5.0%) and the “Diarrhoea, treatment-related TEAE, number of patients” value [3, 4] was 2. The “Diarrhoea, treatment-related TEAE, percent of patients” value [3, 4] was “(10.0%)”, the “Dizziness, treatment-related TEAE, number of patients” value [3, 4] was 4 and the “Dizziness, treatment-related TEAE, percent of patients” value [3, 4] was “(20.0%)”. The “Hallucination, Grade ≥3 TEAE, drug related” value [3, 4] was 1 (5.0%), the “Hallucination, treatment-related TEAE, number of patients” value [3, 4] was 5 and the “Hallucination, treatment-related TEAE, percent of patients” value [3, 4] was “(25.0%)”. For the same compound, the “Headache, Grade ≥3 TEAE, drug related” value [3, 4] was 0 (0.0%), the “Headache, treatment-related TEAE, number of patients” value [3, 4] was 3 and the “Headache, treatment-related TEAE, percent of patients” value [3, 4] was “(15.0%)”. The “Insomnia, Grade ≥3 TEAE, drug related” value [3, 4] was 0 (0.0%), the “Muscular weakness, treatment-related TEAE, number of patients” value [3, 4] was 3 and the “Muscular weakness, treatment-related TEAE, percent of patients” value [3, 4] was “(15.0%)”. For the same compound, the “Musculoskeletal pain, Grade ≥3 TEAE, drug related” value [3, 4] was 0 (0.0%), the “Nausea, treatment-related TEAE, number of patients” value [3, 4] was 9 and the “Nausea, treatment-related TEAE, percent of patients” value [3, 4] was “(45.0%)”. For the same compound, the “Ovarian cyst, Grade ≥3 TEAE, drug related” value [3, 4] was 0 (0.0%), the “Pelvic infection, Grade ≥3 TEAE, drug related” value [3, 4] was 0 (0.0%) and the “Platelet count decreased, Grade ≥3 TEAE, drug related” value [3, 4] was 1 (5.0%). The “Platelet count decreased, treatment-related TEAE, number of patients” value [3, 4] was 2, the “Platelet count decreased, treatment-related TEAE, percent of patients” value [3, 4] was “(10.0%)” and the “Rash maculo-papular, treatment-related TEAE, number of patients” value [3, 4] was 1. The “Rash maculo-papular, treatment-related TEAE, percent of patients” value [3, 4] was “(5.0%)”, the “Vomiting, Grade ≥3 TEAE, drug related” value [3, 4] was 1 (5.0%) and the “Vomiting, treatment-related TEAE, number of patients” value [3, 4] was 5. The “Vomiting, treatment-related TEAE, percent of patients” value [3, 4] was “(25.0%)”, the “Fatigue, Grade ≥3 TEAE, drug related” value [3, 5] was 3 (15.0%) and the “Fatigue, treatment-related TEAE, number of patients” value [3, 5] was 13. For the same compound, the “Fatigue, treatment-related TEAE, percent of patients” value [3, 5] was “(65.0%)”, the “Grade 2 SAEs (nausea, confusional state), MRZ-related” value ([3]; interim analysis, 20 patients) was “two” and the “Grade 3 SAEs (fatigue, hallucination, vomiting), MRZ-related” value ([3]; interim analysis, 20 patients) was “three”. The tolerability ([3]; newly diagnosed G4 MG) was “well tolerated”, the “SAE Nephrolithiasis, relationship to drug” value ([3]; patient 104-C302, action taken None) was “Not Suspected/” and the “SAE Confusional state, relationship to drug” value [3, 6] was “Suspected/”. The “SAE Dehydration, relationship to drug” value [3, 6] was “Not Suspected/”, the “SAE Fatigue, relationship to drug” value [3, 6] was “Suspected/” and the “SAE Hallucination, relationship to drug” value [3, 6] was “Suspected/”. For the same compound, the “SAE Nausea, relationship to drug” value [3, 6] was “Suspected/”, the “SAE Vomiting, relationship to drug” value [3, 6] was “Suspected/” and the “SAE Ovarian cyst, relationship to drug” value ([3]; patient 301-C202, action taken Dose Delayed) was “Not Suspected/”. For the same compound, the “SAE Convulsion, relationship to drug” value [3, 7] was “Not Suspected/” and the “SAE Pelvic infection, relationship to drug” value [3, 7] was “Not Suspected/”.
